Source: US20250228235A1, “METHODS TO IMPROVE ORRGAN VIABILITY” (Mallinckrodt Pharmaceuticals Ireland Limited, priority 2017, published 2025)

Key:
[1] = tested on: cerebral mitochondrial function (cortical and hippocampal tissue); assay: High-resolution respirometry of cortical and hippocampal tissue to assess mitochondrial function after cardiac arrest; format: in vivo, swine; settings: iNO 20 ppm vs placebo
Description: (§1) Neurologic injury following pediatric cardiac arrest (CA) remains common. Inhaled nitric oxide (iNO) may mitigate cerebral mitochondrial dysfunction, a critical convergence point for secondary brain injury, triggered by CA. It was hypothesized that following asphyxia and cardiac arrest, animals treated with 20 ppm iNO during CPR and four hours post-return of spontaneous circulation (ROSC) will have improved cerebral blood flow (CBF) and improved mitochondrial function as defined by increased respiratory control ratio (RCR) and decreased mitochondrial reactive oxygen species (mtROS) compared with placebo.
(§2) 4-week-old swine received 7 minutes of asphyxia, then ventricular fibrillation. Guideline CPR was performed with compression depth (CD)≥⅓ of the chest diameter and standard epinephrine continued for 10 mins or until ROSC, with protocolized post-ROSC care. In a blinded fashion, subjects were randomized (iNO 20 ppm initiated 1 minute into CPR period, n=10, or placebo, n=10). […] Baseline and continuous CBF measurements were taken using invasive clinical and non-invasive optical instrumentation. Cortical and hippocampal tissue were analyzed by high-resolution respirometry to assess mitochondrial function. T-tests and ANOVA were used where applicable. Longitudinal hemodynamic variables were compared using generalized estimating equations to control for within-subject correlation.

4-week-old swine = assay: Blinded, randomized, controlled pediatric swine asphyxial model of cardiac arrest (survival, cerebral blood flow, hemodynamics); format: in vivo
Description: as §1, §2

SMILES: [N]=O [iNO, nitric oxide]
- mtROS generation, cortex ([1]; cortex, p<0.001): significantly lower
- Cortex RCR (respiratory control ratio) ([1]; cortex, p=0.04): significantly higher
- hippocampal RCR (respiratory control ratio) ([1]; hippocampus, p=0.007): significantly higher
- mtROS generation, hippocampus ([1]; hippocampus, p=0.03): significantly lower
- invasive or noninvasive CBF (cerebral blood flow) (4-week-old swine; during CPR and post-ROSC, iNO 20 ppm vs placebo): no significant differences
- survived (4-week-old swine; iNO 20 ppm initiated 1 minute into CPR, n=10, placebo 7/10, p=0.21): 10/10
